In paper PMC11790763, “A Peptide Motif Covering Splice Site B in Neuroligin-1 Binds to Aβ and Acts as a Neprilysin Inhibitor” (Molecular Neurobiology, 2024):
Bridges are numbered along the chain shown (N, C = ends). Roman numbers before positions name the chains, in order. Where no end group is shown, it is not given here.

B1: NL1: recombinant rat neuroligin-1, soluble ectodomain (R&D systems) (protein, UniProt Q62765 46-697, looked up)
extracellular domain: QKLDDVDPLVTTNFGKIRGIKKELNNEILGPVIQFLGVPYAAPPTGEHRFQPPEPPSPWSDIRNATQFAPVCPQNIIDGRLPEVMLPVWFTNNLDVVSSYVQDQSEDCLYLNIYVPTEDVKRISKECARKPGKKICRKGDIRDSGGPKPVMVYIHGGSYMEGTGNLYDGSVLASYGNVIVITVNYRLGVLGFLSTGDQAAKGNYGLLDLIQALRWTSENIGFFGGDPLRITVFGSGAGGSCVNLLTLSHYSEGNRWSNSTKGLFQRAIAQSGTALSSWAVSFQPAKYARILATKVGCNVSDTVELVECLQKKPYKELVDQDVQPARYHIAFGPVIDGDVIPDDPQILMEQGEFLNYDIMLGVNQGEGLKFVENIVDSDDGVSASDFDFAVSNFVDNLYGYPEGKDVLRETIKFMYTDWADRHNPETRRKTLLALFTDHQWVAPAVATADLHSNFGSPTYFYAFYHHCQTDQVPAWADAAHGDEVPYVLGIPMIGPTELFPCNFSKNDVMLSAVVMTYWTNFAKTGDPNQPVPQDTKFIHTKPNRFEEVAWTRYSQKDQLYLHIGLKPRVKEHYRANKVNLWLELVPHLHNLNDISQYTSTTTKVPSTDITLRPTRKNSTPVTSAFPTAKQDDPKQQPSPFSVDQRDYSTELS
modifications: extracellular domain

What was measured:
WT and 5XFAD mice [1] = experiment: Y-maze test; assay type: in vivo, mouse; conditions: 10 mg/kg s.c. three times a week for 10 weeks
Method: (§1) At the age of 2 months, 5XFAD and WT mice were injected subcutaneously (s.c.) with either neurolide (10 mg/kg) or saline in a volume of 0.1 ml/10 g of body weight three times a week for 10 weeks.
To estimate the effect of neurolide on spatial working memory, the Y-maze test was used, wherein the recording of alternation behavior was assessed. Mice were placed in the middle of the three-arm maze, joined with equal angle between all arms, and allowed to explore the maze freely for 8 min. The sequence and total number of entries into each arm were assessed in video recordings. Arm entry was considered completed when the hind paws of the mouse had been placed in the arm. An actual alternation was defined as entries into all three arms on consecutive choices. Percentage alternation was calculated as the ratio of actual to possible alternation (defined as total number of arm entries − 2) × 100, as follows: %Alternation=Number of alternations/Total arm entries-2×100.

Aβ1-40 = molecular target: T1, Aβ1-40 (Homo sapiens, UniProt P05067); experiment: Competitive ELISA, binding to biotinylated Aβ1-40
T1 construct: biotinylated Aβ1-40, at final concentration 400 nM; purchased Bachem AG (Bubendorf, Switzerland) or Schafer-N; host or cells: synthetic peptide
Method: NL1 and NL1-derived peptide binding to Aβ was measured by competitive ELISA using the shorter Aβ1-40 peptide with a slower polymerization constant, optimized for this binding assay. Recombinant NL1 (3.125 nM) was immobilized on a poly-sorb 96-well plate (NUNC, Roskilde, Denmark) using sodium bicarbonate buffer (pH 9.6), and left overnight at 4 °C, followed by washing with PBST buffer (PBS supplemented with 0.1% [vol/vol] Tween-20, pH 7.4). In separate tubes, biotinylated Aβ1-40, at final concentration 400 nM, was premixed with serially diluted NL1 or NL1-derived peptides for 30 min. A reversed version of Aβ (Aβ40-1) was used as the respective negative control (Supplementary Fig. 1). After preincubation, the samples were centrifuged at 20,000 × g for 10 min at 4 °C and 100 μl of the mixtures were transferred in triplicates onto the precoated ELISA plate. Plates were incubated at room temperature for 4 h, followed by washing and incubation with streptavidin-HRP conjugate (1:1000, 1 h; Dako, Glostrup, Denmark). The signal was developed with TMB ONE (KEM-EN-TEC, Denmark), and the reaction was terminated with 0.2 M H2SO4. Absorbance was measured at 450 nm on a Wallac VICTOR2 1420 Multilabel Counter (PerkinElmer, Hvidovre, Denmark). KD values were derived by sigmoidal dose–response (variable slope) fit of NL1 and neurolide dose–response curves after log transformation according to GraphPad Prism (version 6, GraphPad, San Diego, CA, USA). Obtained inhibitory concentration IC50 value was interpreted as KD value.

[2] = cited from earlier work
WT and 5XFAD mice [3] = experiment: Novel object recognition task; assay type: in vivo, mouse; conditions: 10 mg/kg s.c. three times a week for 10 weeks
Method: as §1
The novel object recognition assay is based on the innate tendency of animals to differentially explore novel and familiar objects and consists of habituation, training, short-term (2 h) and long-term (24 h) memory retention sessions. On day 1, the mice were habituated to the test area (a 35 × 35 cm box with a floor divided into 16 squares). Each mouse was placed into a box without objects and allowed to explore it freely for 5 min. During a training session, a mouse was placed in the test box and exposed to 2 identical nontransparent glass objects placed in the box. During 5 min, locomotion and exploration time for both objects were recorded. Exploration of an object was defined as pointing the nose to the object at a distance of ≤ 1 cm and/or touching it with the nose. Climbing or sitting on the object was not considered exploration. Short-term memory retention was evaluated 2 h after the training session, whereas long-term memory retention was evaluated 24 h after the training session. During both sessions, mice were exposed to the familiar object and to a novel object. The exploration time for the familiar and novel objects and locomotion were recorded for 5 min. Mice failing to explore one or both objects in the training trial were excluded from the statistical analysis.

Aβ1-42 [4] = molecular target: T2, Aβ1-42 (Homo sapiens, UniProt P05067); experiment: Aβ1-42 aggregation assay (thioflavin T fluorescence); conditions: 8 days, 50 mM Tris pH 7.4, ThT 5 μM, triplicates, slopes compared with Aβ alone
T2 construct: Aβ1-42, at a final concentration of 75 μM (pH 7.4); purchased Bachem AG (Bubendorf, Switzerland) or Schafer-N; host or cells: synthetic peptide
Method: Aβ1-42 was dissolved in sterile deionized water to a final concentration of 1 mM. Then, the peptide was subjected to a basic shock by adding 2 M NaOH to pH 12 followed by neutralization with 1 M HCl. Aβ1-42, at a final concentration of 75 μM (pH 7.4) either alone or in combination with NL1 (1 μM), neurolide (10 μM), or NLp7 (10 μM), was loaded in triplicates on 96-well plate. Immediately after mixing the samples, thioflavin T (5 μM, ThT; Sigma-Aldrich), dissolved in the aggregation buffer (50 mM Tris, pH 7.4), was added to wells and plate was incubated at 37 °C for 8 days. The formation of beta-amyloid aggregates was monitored first for 210 min and then every 24 h by recording changes in ThT fluorescence at excitation/emission (Ex/Em) = 440/482 nm.

Aβ1-42 [5] = conditions: NL1 at 1 nM; cited from earlier work
From the text: This higher accumulation of Aβ plaques promoted by the neurolide treatment prompted us to look for an explanation for this phenome ...

T2 sequence (P05067 672-713): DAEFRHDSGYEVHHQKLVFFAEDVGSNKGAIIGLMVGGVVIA
T1 sequence (P05067 672-711): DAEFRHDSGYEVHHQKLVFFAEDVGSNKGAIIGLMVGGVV

Molecule	Y-maze number of arms entered (WT and 5XFAD mice [1]; p-value for treatment 0.9532)	Y-maze alternation rate (WT and 5XFAD mice [1]; test at week 11)	binding affinity to Aβ, times lower than that of the parent sNL1 domain (Aβ1-40)	passage of the blood–brain-barrier [2]	plasma/CSF ratio ([2]; systemically given)	levels in CSF ([2]; within 30 min after single s.c. administration)	recognition index, short-term memory (2 h) (WT and 5XFAD mice [3]; 5XFAD mice, versus vehicle, p < 0.05)	recognition index, long-term memory (24 h) (WT and 5XFAD mice [3]; WT and 5XFAD mice, same tendency as at 2 h)	recognition index, short-term memory (2 h) (WT and 5XFAD mice [3]; WT mice, vehicle higher than neurolide, p < 0.01)	development of ThT fluorescence (Aβ aggregation) (Aβ1-42 [4]; 75 μM Aβ1-42 + 10 μM peptide, 37 °C)	effect on Aβ aggregation at low concentration (Aβ1-42 [5])	rise of ThT fluorescence (Aβ aggregation) (Aβ1-42 [4]; 75 μM Aβ1-42 + 1 μM sNL1, 37 °C, Ex/Em 440/482 nm)
I: SEGNRWSNSTKGLFQRAKK-NH2 / II: SEGNRWSNSTKGLFQRAK / III: SEGNRWSNSTKGLFQRA / IV: SEGNRWSNSTKGLFQRA (amide I:18-IV:C, I:19-II:C, II:18-III:C; C-terminus assumed) [neurolide]	had no effect	had no effect	approximately 2 times	in the range of nanograms	approximately 20	nanogram/low microgram levels	significantly enhanced	no longer statistically significant	impairs memory	attenuate Aβ peptide aggregation		
B1											accelerated the aggregation	significantly decreased
